Reference: US9765105B2, “Macrolide compound” (Pulike Biological Engineering, Inc., priority 2013, dated 2017)

How the values were obtained:
[1] = system: Actinobacillus pleuropneumoniae CVCC262; experiment: in vitro susceptibility, MIC by mini broth dilution; format: cell-based; settings: strain CVCC262
In short: (§1)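 Read-out is the minimum inhibitory concentration, measured by mini broth dilution following the US NCCLS approved standard, with 11 two-fold compound dilutions in DMSO and a 1:200-diluted inoculum.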

Haemophilus parasuis = experiment: as above; format: cell-based
In short: as §1

[2] = system: Pasteurella multocida CVCC399; experiment: as above; format: cell-based; settings: strain CVCC399
In short: as §1

[3] = system: Streptococcus equines CVCC556; experiment: as above; format: cell-based; settings: strain CVCC556
In short: as §1

[4] = system: Staphylococcus aureus CVCC26003; experiment: as above; format: cell-based; settings: strain CVCC26003
In short: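 S. aureus CVCC26003 was revived and subcultured twice, 20 h each at 35° C, on solid medium, then diluted 1:200 in CAMHB liquid medium. Compounds received an 11-step two-fold DMSO dilution in parallel duplicate rows. MIC was read by mini broth dilution per NCCLS guidance.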

[5] = acute toxicity test, single gastric perfusion; format: in vivo, Balb/c mice; settings: 2000 mg/kg once by gastric perfusion, 85 mg/ml suspension; deaths after 6 h
Description: The marked parts of mice in the Syzx-24 group were respectively left hinder limbs (female), necks (female), right hinder limbs (male), and necks (male). The mice in the solvent control group were not marked.

[6] = acute oral toxicity test, LD50 by improved karber method; settings: per os, gavaged once, in 0.2% sodium carboxymethylcellulose; observed 7 days
[7] = orally intoxicated mice; reported; cited from earlier work
[8] = system: Streptococcus pneumoniae CMCC 31203; experiment: in vivo antibacterial test, survival of infected mice; set-up: species or system BALB/c mice; settings: medicament control group; Tulathromycin 10 mg per kg after infection; observed until the seventh day

## CC[C@H]1OC(=O)[C@H](C)[C@@H](O[C@H]2C[C@@](C)(OC)[C@](O)(CN(C)C)[C@H](C)O2)[C@H](C)[C@@H](O[C@@H]2O[C@H](C)C[C@H](N(C)C)[C@H]2O)[C@](C)(O)C[C@@H](C)NC[C@H](C)[C@@H](O)[C@]1(C)O [Syzx-24]
[1]
  MIC values, Actinobacillus pleuropneumoniae CVCC262: 0.25 ug/mi
Haemophilus parasuis
  MIC values, Haemophilus parasuis: 0.5 ug/mi
[2]
  MIC values, Pasteurella multocida CVCC399: 0.25 ug/mi
[3]
  MIC values, Streptococcus equines CVCC556: 0.25 ug/mi
[4]
  MIC values, Staphylococcus aureus CVCC26003: 0.5 ug/mi
[5]
  Death rate: 0%
  Number of dead animals/total number of animals: 0/4

## CCCNC[C@]1(O)[C@H](C)O[C@@H](O[C@H]2[C@H](C)[C@@H](O[C@@H]3O[C@H](C)C[C@H](N(C)C)[C@H]3O)[C@](C)(O)C[C@@H](C)CN[C@H](C)[C@@H](O)[C@](C)(O)[C@@H](CC)OC(=O)[C@@H]2C)C[C@@]1(C)OC [Tulathromycin, reference compound]
[1]
  MIC values, Actinobacillus pleuropneumoniae CVCC262: 0.25 ug/mi
Haemophilus parasuis
  MIC values, Haemophilus parasuis: 0.25 ug/mi
[2]
  MIC values, Pasteurella multocida CVCC399: 0.25 ug/mi
[3]
  MIC values, Streptococcus equines CVCC556: 0.25 ug/mi
[6]
  LD50: 2379.2 mg/kg
[7]
  minimum lethal dose: higher than 2000 mg/kg·d-1
[4]
  MIC values, Staphylococcus aureus CVCC26003: 0.25 ug/mi
[8]
  Animal survival rate: 70%
  Animal survival rate (surviving/total animals): 7/10
[5]
  Death rate: 75%
  Number of dead animals/total number of animals: 3/4 (2 female and 1 male)
